According to US11078166B2, “Triazole conjugated ureas, thioureas, carbamates, and reversed carbamates for PSMA-targeted imaging agents and uses thereof” (THE JOHNS HOPKINS UNIVERSITY, priority 2015, dated 2021):
“Also recorded” adds a separate entry of the source. Like-named read-outs stand apart in the source and are kept apart here. One block for each molecule: values may come before it.

Columns and labels:
PSMA [1] = target: T1, PSMA (Homo sapiens, UniProt Q04609); test: NAALADase assay (fluorescence-based Amplex Red glutamic acid assay), PSMA inhibition; assay type: biochemical; settings: for Ki: LNCaP cell lysates, 4 μM NAAG, Cheng-Prusoff conversion
T1 construct: endogenous in cells; host or cells: LNCaP cell lysate
T1 sequence (Q04609 whole entry): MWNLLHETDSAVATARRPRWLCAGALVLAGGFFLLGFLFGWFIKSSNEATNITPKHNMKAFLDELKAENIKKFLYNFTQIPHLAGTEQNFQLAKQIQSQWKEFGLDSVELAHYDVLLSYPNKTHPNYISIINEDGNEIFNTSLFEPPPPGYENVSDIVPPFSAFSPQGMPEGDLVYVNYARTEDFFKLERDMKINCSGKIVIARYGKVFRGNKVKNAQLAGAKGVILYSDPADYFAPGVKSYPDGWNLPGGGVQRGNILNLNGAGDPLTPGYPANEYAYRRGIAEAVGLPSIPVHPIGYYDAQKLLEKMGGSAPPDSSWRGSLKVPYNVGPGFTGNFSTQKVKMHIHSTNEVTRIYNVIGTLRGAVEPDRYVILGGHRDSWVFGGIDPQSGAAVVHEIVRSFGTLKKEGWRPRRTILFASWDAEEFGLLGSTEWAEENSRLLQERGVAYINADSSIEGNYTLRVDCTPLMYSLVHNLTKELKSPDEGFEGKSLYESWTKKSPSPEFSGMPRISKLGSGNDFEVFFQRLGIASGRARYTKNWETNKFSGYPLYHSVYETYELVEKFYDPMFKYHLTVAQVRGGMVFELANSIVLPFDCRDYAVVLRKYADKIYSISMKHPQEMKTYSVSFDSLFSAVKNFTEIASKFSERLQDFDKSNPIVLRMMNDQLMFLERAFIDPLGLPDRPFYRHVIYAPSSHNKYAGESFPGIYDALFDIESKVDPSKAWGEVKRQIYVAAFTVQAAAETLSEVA
Method: NAALADase Assay (Kozikowski et al., J. Med. Chem. 2004). The binding affinities of compounds YC-88, YC-71 and YC-XY-01 were tested with an established protocol. Briefly, cell lysates of Lymph Node Carcinoma of the Prostate (LNCaP) cell extracts (25 μL) were incubated with the inhibitor (12.5 μL) in the presence of 4 μM N-acetylaspartylglutamate (NAAG) (12.5 μL) at 37° C. for 120 min. The amount of the glutamate released by NAAG hydrolysis was measured by incubating with a working solution (50 μL) of the Amplex Red Glutamic Acid Kit (Life Technologies, Grand Island, N.Y.) at 37° C. for 60 min. Fluorescence was measured with a VICTOR^3V multilabel plate reader (Perkin Elmer Inc., Waltham, Mass.) with excitation at 490 nm and emission at 642 nm. Inhibition curves were determined using semi-log plots and IC50 values were determined at the concentration at which enzyme activity was inhibited by 50%. Assays were performed in triplicate with the entire inhibition study being repeated at least once to confirm affinity and mode of inhibition. Enzyme inhibitory constants (Ki values) were generated using the Cheng-Prusoff conversion. […]. Data analysis was performed using GraphPad Prism version 4.00 for Windows (GraphPad Software, San Diego, Calif.).
PSMA Inhibition Assay. The PSMA binding affinity of YC-88 were determined using a modification of the Amplex Red glutamic acid assay (Chen et al., Biochem. Biophys. Res. Commun. 2009).

PSMA [2] = target: T1, PSMA; settings: from Chen et al. 2008 and 2011; read-out: Ki value, PSMA (for comparison); cited from earlier work
[3] = Lipophilicity, octanol-water partition coefficient by shake-flask method; assay type: physicochemical; settings: pH 7.4
Method: Lipophilicity Determination. Octanol-water partition coefficients [log P (pH 7.4) values] were determined according to a literature procedure (Banerjee et al., J. Med. Chem. 2010). […] After vigorously shaking the mixture, it was centrifuged at 3,000 rpm for 5 min. Aliquots were removed from the two phases, and the radioactivity was measured in a 1282 Compugamma CS γ-counter, (LKB, Wallac, Turku, Finland).
Lipophilicity. Octanol-water partition coefficient (log P) values were measured by the shake-flask method using 1-octanol and PBS (pH 7.4). The log P of [^18F]YC-88 at pH 7.4 was −3.91.

[4] = Radiation dosimetry: kidney biological clearance half-life and AUC from % ID/g data; assay type: in vivo, NOD-SCID mice; settings: for AUC in kidneys / Biological half-life in kidneys: single exponential fit of kidney % ID/g
Excerpt: Radiation Dosimetry. […] The simulation analysis and modeling software package SAAM II (The Epsilon Group, Charlottesville, Va.) was used to perform the fits.

Structure (SMILES): O=C(O)CC[C@H](OC(=O)N[C@@H](CCCCNC(=O)CCc1cn(CCF)nn1)C(=O)O)C(=O)O [YC-XY-01, (S)-2-((((S)-1-carboxy-5-(3-(1-(2-fluoroethyl)-1H-1,2,3-triazol-4-yl)propanamido)pentyl)carbamoyl)oxy)pentanedioic acid]
Binding affinity to PSMA (in words) (PSMA [1]): high binding affinity to PSMA
Ki (PSMA [1]): 473 nM

Structure (SMILES): O=C(O)CC[C@H](NC(=O)N[C@@H](CSCc1ccc(F)cc1)C(=O)O)C(=O)O [DCFBC]
Ki (PSMA [2]): 0.44 nM

Structure (SMILES): O=C(O)CCC(NC(=O)NC(CCCCNC(=O)c1ccc([18F])nc1)C(=O)O)C(=O)O (stereo not shown) [[^18F]DCFPyL, 2-(3-{1-carboxy-5-[(6-[^18F]fluoropyridine-3-carbonyl)-amino]-pentyl}-ureido)-pentanedioic acid, reference compound]
log P (octanol-water partition coefficient) ([3]; 1-octanol and PBS): −3.27
AUC in kidneys [4]: 340.74 % ID/g-h
Biological half-life in kidneys [4]: 1.20 h

Structure (SMILES): O=C(O)CCC(NC(=O)NC(CCCCNC(=O)c1ccc(F)cc1)C(=O)O)C(=O)O (stereo not shown) [DCFBzL]
Ki (PSMA [2]): 0.19 nM

Structure (SMILES): O=C(O)CC[C@H](NC(=O)N[C@@H](CCCCNC(=O)CCc1cn(CC[18F])nn1)C(=O)O)C(=O)O [[^18F]YC-88, 2-[3-(1-carboxy-5-{3-[1-(2-[^18F]fluoroethyl)-1H-1,2,3-triazol-yl]propanamido}pentyl)ureido]-pentanedioic acid]
logP [3]: -3.91
AUC ratio (agent/YC-88) in kidneys ([4]; mouse, in vivo): 1
Kidney absorbed dose, decrease compared to [^18F]DCFPyL ([4]; mouse, in vivo): ~5 fold
AUC in kidneys [4]: 70.7 % ID/g-h
Biological half-life in kidneys [4]: 1.52 h

Now from value to molecule, other results behind:

Ki (PSMA [1]): 12.9 nM
Structure (SMILES): O=C(O)CCC(NC(=O)NC(CCCCNC(=O)CCc1cn(CCF)nn1)C(=O)O)C(=O)O (stereo not shown) [YC-88, 2-[3-(1-Carboxy-5-{3-[1-(2-fluoroethyl)-1H-1,2,3-triazol-yl]propanamido}pentyl)ureido]pentanedioic Acid]
Binding affinity to PSMA (in words) (PSMA [1]): high affinity for PSMA; also recorded: high binding affinity to PSMA

Binding affinity to PSMA (in words) (PSMA [1]): high binding affinity to PSMA
Ki (PSMA [1]): 0.6 nM
Structure (SMILES): O=C(O)CCC(NC(=O)NC(CCCCNC(=O)CCCCCCC(=O)NC(CCCCNC(=O)CCc1cn(CCF)nn1)C(=O)O)C(=O)O)C(=O)O (stereo not shown) [YC-71]
